Key:
[1] = system: MDA-MB-231; experiment: Antiproliferative activity against human […] cells measured by cell viability assay; type: functional, cell-based
[2] = biological target: Serine/threonine-protein kinase pim-1 (Homo sapiens, UniProt P11309); experiment: Inhibition of Pim-1 (unknown origin) measured by ADP-Glo kinase assay
Serine/threonine-protein kinase pim-1, sequence (P11309 whole entry): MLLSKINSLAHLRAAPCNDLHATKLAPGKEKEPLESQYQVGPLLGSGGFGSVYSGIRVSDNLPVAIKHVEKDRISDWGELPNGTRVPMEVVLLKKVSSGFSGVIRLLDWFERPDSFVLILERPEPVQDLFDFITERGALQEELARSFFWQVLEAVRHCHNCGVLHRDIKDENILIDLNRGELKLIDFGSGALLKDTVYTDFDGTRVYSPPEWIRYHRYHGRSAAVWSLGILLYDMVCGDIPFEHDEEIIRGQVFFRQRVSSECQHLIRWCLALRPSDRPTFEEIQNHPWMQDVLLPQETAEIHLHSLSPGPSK

| SMILES | IC50 [1] [µM] | IC50 [2] [µM] |
| --- | --- | --- |
| c1cc2c(cn1)Oc1ccc3cc1N2CCCCCNCCOCCO3 | 25.9 | 0.14 |
| c1cc2c(cn1)Oc1ccc3cc1N2CCCCNCCOCCO3 | 12.3 | 0.176 |
| c1cc2c(cn1)Oc1ccc3cc1N2CCCCNCCCCCO3 | 16.3 | 0.27 |
| c1cc2c(cn1)Oc1ccc3cc1N2CCOCCNCCCO3 | 30 | 0.881 |
| c1cc2c(cn1)Oc1ccc3cc1N2CCCNCCOCCO3 | 19.5 | 0.0573 |
| c1cc2c(cn1)Oc1ccc3cc1N2CCCCCNCCCCO3 | 8.15 | 0.0351 |
| c1cc2c(cn1)Oc1ccc3cc1N2CCOCCNCCCCCO3 | 35.4 | 2.19 |
| c1cc2c(cn1)Oc1ccc3cc1N2CCOCCNCCCCO3 | 44 | 0.467 |
| c1cc2c(cn1)Oc1ccc3cc1N2CCCCNCCCCO3 | 19 | 0.434 |

— ChEMBL document CHEMBL5113466, “Design, synthesis, and bioactivity evaluation of macrocyclic benzo[b]pyrido[4,3-e][1,4]oxazine derivatives as novel Pim-1 kinase inhibitors” (Bioorg Med Chem Lett, 2022)
